The results in this text go back to PubChem BioAssay (NCI).

“And” between values parts separate entries of the source, which are not always exact repeats. Equal entries are not always repeated.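 1) Cells in 96-well plates. 2) Compound, 48 h, 5 concentrations. 3) Linear interpolation between surrounding doses. 4) Unreached endpoint = highest concentration. GI50 marks 50% less growth. The concentration for full growth arrest is given as TGI.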

Among the test systems are UACC-62 melanoma; UACC-257 melanoma; HCT-15 colon; NCI-H522 lung; KM12 colon; NCI-H460 lung; SR leukemia; 786-0 renal; HOP-92 NSCLC; SW-620 colon; HT29 colon; DLD-1 colon; KM20L2 colon.
Common to all, as to experiment: growth of human tumour cells (NCI), 48 h

Take `COc1nc(OC)nc(-c2cccc(F)c2)n1`: the TGI is 22 µM with UACC-62 melanoma; 30.7 µM in the assay with UACC-257 melanoma; 29.3 µM in the assay on HCT-15 colon; 42.4 µM in the assay on NCI-H522 lung; 31.7 µM in the assay on KM12 colon; 32.9 µM with NCI-H460 lung. Also, the TGI in the assay on SR leukemia was determined as 17.5 µM; with 786-0 renal, 63 µM; with HOP-92 NSCLC, 38.8 µM; with SW-620 colon it was 40.6 µM; with HT29 colon, 57.9 µM.
Consider `C/C(=C\Cc1cc(O)ccc1O)CCc1c(C)c(O)c(O)c(C=O)c1C`, for which the TGI is over 100 µM with HCT-15 colon; 21.4 µM in the assay on NCI-H522 lung; 44.3 µM in the assay on KM12 colon; 53.3 µM in the assay with NCI-H460 lung; 51 µM in the assay with SR leukemia; 62.2 µM in the assay on 786-0 renal. For the same compound, the TGI in the assay on HOP-92 NSCLC was 34.7 µM; with SW-620 colon, over 100 µM; in the assay on HT29 colon, 64.8 µM; with DLD-1 colon, 56.8 µM; with KM20L2 colon it was over 100 µM.
As for `Nc1ccc(-c2nc3ccc(F)cc3s2)cc1`, the TGI is 31.3 µM with UACC-62 melanoma; over 100 µM with UACC-257 melanoma; over 100 µM in the assay with HCT-15 colon; over 100 µM in the assay on NCI-H522 lung; 64.3 µM in the assay on KM12 colon; over 100 µM in the assay on NCI-H460 lung. Further, the TGI with SR leukemia, in the assay on 786-0 renal, with HOP-92 NSCLC, in the assay with SW-620 colon and in the assay on HT29 colon was over 100 µM in each case. Moreover, the GI50 in the assay with NCI-H460 lung was 24.4 µM.
`Cc1nn(C)c2nc3ccc(Cl)cc3c(-c3ccccc3)c12`: the TGI in the assay on UACC-62 melanoma, in the assay with UACC-257 melanoma, with HCT-15 colon, in the assay with NCI-H522 lung, with KM12 colon and in the assay on NCI-H460 lung was over 100 µM each time. The TGI in the assay on SR leukemia, in the assay with 786-0 renal, in the assay on HOP-92 NSCLC, with SW-620 colon and in the assay on HT29 colon was over 100 µM each time.
Consider `Cc1cc(O)ccc1C1(c2ccc(F)cc2)OC(=O)c2ccccc21` (stereo not given), for which the TGI with UACC-62 melanoma was 16.9 µM; in the assay with UACC-257 melanoma it was 26.7 µM; with HCT-15 colon, 12.4 µM; in the assay on NCI-H522 lung it was 15.6 µM; in the assay with KM12 colon, 7.3 µM; in the assay on NCI-H460 lung, 29 µM. The TGI was over 76.8 µM in the assay with SR leukemia; 22.2 µM with 786-0 renal; 12.5 µM in the assay on HOP-92 NSCLC; 25.5 µM with SW-620 colon; 18 µM in the assay with HT29 colon.
Regarding `Cc1ccc(OCC2OC(n3cnc4c(Cl)ncnc43)CC2Oc2ccc(C)cc2)cc1` (stereo not given), the GI50 with UACC-62 melanoma is 9.01 µM and 22.8 µM; with UACC-257 melanoma it was 6.24 µM and 16 µM; in the assay on HCT-15 colon, 1.94 µM and 11.7 µM; in the assay with KM12 colon, 2.42 µM and 14.3 µM; in the assay on NCI-H460 lung, 3.71 µM and 13.4 µM; with HOP-92 NSCLC, 5.22 µM and 2.22 µM. In addition, the GI50 in the assay on HT29 colon was 1.69 µM and 6.15 µM. The TGI was 25.9 µM and > 59 µM in the assay with UACC-62 melanoma; 18.5 µM and 37.1 µM in the assay with UACC-257 melanoma; 4.28 µM and 41.6 µM in the assay on HCT-15 colon; 6.66 µM and 3.82 µM in the assay on NCI-H522 lung; 6.57 µM and 42 µM in the assay on KM12 colon; 18.3 µM and > 48.5 µM with NCI-H460 lung. Besides, the TGI in the assay with SR leukemia was over 22.7 µM; in the assay on 786-0 renal, > 73.4 µM and 51.7 µM; in the assay on HOP-92 NSCLC, 24.2 µM and 5.57 µM; in the assay on SW-620 colon, over 55.4 µM; in the assay on HT29 colon, 3.13 µM and 21.2 µM.
Take `COC1(C)C(=O)N2C1N(C(=O)OCc1ccccc1)CC2(C)C` (stereo not given): the TGI with UACC-62 melanoma, in the assay on UACC-257 melanoma, in the assay with HCT-15 colon, with NCI-H460 lung, with SR leukemia and in the assay with 786-0 renal was over 100 µM in each case. In addition, the TGI in the assay with SW-620 colon, in the assay with HT29 colon, with DLD-1 colon and with KM20L2 colon was over 100 µM in each case.
As to `Cn1c2c(c3ccccc31)CCN1C(=O)C3SC21C1C(=O)N(c2ccccc2)C(=O)C31` (stereo not given), the TGI in the assay with UACC-62 melanoma was over 86.3 µM; in the assay with UACC-257 melanoma it was over 69.2 µM; in the assay on HCT-15 colon, over 100 µM; in the assay with NCI-H522 lung, over 100 µM; in the assay on KM12 colon it was over 100 µM; in the assay with NCI-H460 lung, over 100 µM. Moreover, the TGI with SR leukemia is over 100 µM; in the assay on 786-0 renal it was over 100 µM; in the assay with HOP-92 NSCLC, over 86.7 µM; in the assay on SW-620 colon it was over 100 µM; in the assay on HT29 colon, over 100 µM. The GI50 with NCI-H460 lung is 90.6 µM.
`CCCCCn1c(=O)c2c(=O)[nH][nH]c2c2ccccc21`: the TGI in the assay on UACC-62 melanoma, with UACC-257 melanoma, in the assay on HCT-15 colon, in the assay on NCI-H522 lung, with KM12 colon and with NCI-H460 lung was over 100 µM in each case. Further, the TGI in the assay on SR leukemia, in the assay on 786-0 renal, in the assay on HOP-92 NSCLC, in the assay with SW-620 colon and in the assay with HT29 colon was over 100 µM each time.
In the case of `CC(=O)CC(C)(C)NC(=O)[C@@]1(O)CC[C@H]2[C@@H]3CCC4=CC(=O)CC[C@@H]4[C@H]3CC[C@@]21C`, the TGI in the assay with UACC-62 melanoma, in the assay with UACC-257 melanoma, in the assay with HCT-15 colon, with NCI-H522 lung, with KM12 colon and in the assay with NCI-H460 lung was over 100 µM each time. Also, the TGI in the assay with SR leukemia, in the assay with 786-0 renal, in the assay on HOP-92 NSCLC, in the assay with SW-620 colon and in the assay on HT29 colon was over 100 µM each time.
In the case of `O=C(/C=C(\O)c1ccccc1)/C(=C/C(=O)c1ccccc1)NN=C(c1ccccc1)c1ccccc1`, the TGI in the assay on UACC-62 melanoma is 36.7 µM; with UACC-257 melanoma, 73.1 µM; in the assay on HCT-15 colon, over 100 µM; in the assay on NCI-H522 lung, 63 µM; with KM12 colon, over 100 µM; in the assay on NCI-H460 lung it was 72.8 µM. In addition, the TGI with SR leukemia, with 786-0 renal, in the assay on HOP-92 NSCLC, with SW-620 colon and in the assay on HT29 colon was over 100 µM in each case.
Consider `S=C(N/N=C\c1ccccn1)N(Cc1ccccn1)Cc1ccccn1`, for which the TGI is over 23.1 µM in the assay with UACC-62 melanoma; 39.5 µM with UACC-257 melanoma; over 43.2 µM in the assay on HCT-15 colon; 33.1 µM in the assay with NCI-H522 lung; 23.5 µM with KM12 colon; over 44 µM in the assay with NCI-H460 lung. Moreover, the TGI in the assay with SR leukemia was over 39 µM; in the assay on 786-0 renal, 13.3 µM; with HOP-92 NSCLC it was 11.4 µM; in the assay on SW-620 colon it was over 51.3 µM; in the assay with HT29 colon, 16.2 µM.
